This is an account of results in ChEMBL document CHEMBL6153077, “Design, synthesis, and anti-liver fibrosis activity of novel non-steroidal vitamin D receptor agonists based on open-ring steroid scaffold” (Eur J Med Chem, 2025).

Activity calls are given as the source filed them. No cut-off for these calls is given here.

The target in one experiment is T1, Vitamin D3 receptor (Homo sapiens) (UniProt P11473).
T1 sequence (whole entry): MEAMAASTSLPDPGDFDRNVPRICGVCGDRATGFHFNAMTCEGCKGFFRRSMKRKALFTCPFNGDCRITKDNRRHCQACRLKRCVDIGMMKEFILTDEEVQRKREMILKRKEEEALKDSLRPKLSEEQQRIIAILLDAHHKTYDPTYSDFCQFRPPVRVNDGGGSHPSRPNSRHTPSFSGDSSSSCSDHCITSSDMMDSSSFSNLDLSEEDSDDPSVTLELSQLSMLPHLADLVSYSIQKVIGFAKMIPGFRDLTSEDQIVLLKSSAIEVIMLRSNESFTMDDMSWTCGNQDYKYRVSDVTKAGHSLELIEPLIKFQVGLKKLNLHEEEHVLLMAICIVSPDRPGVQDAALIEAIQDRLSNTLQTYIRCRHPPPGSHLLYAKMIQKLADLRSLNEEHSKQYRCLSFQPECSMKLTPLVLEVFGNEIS
In words: Binding affinity to full-length VDR (unknown origin) at 1 uM by fluorescence polarization assay relative to control.
Conditions: not given
A general note: Fluorescence polarisation rises when a labelled molecule tumbles more slowly, as on binding a larger partner.
Regarding `CCC(O)(CC)CCCOc1ccc(C#CC2=C[C@@H](O)[C@@H](O)[C@H](O)C2)c2c1CCCC2`, the result was inactive. `CCCCC(O)(CCCC)CCCOc1cccc2c1CCCC2OC(=O)C1=C[C@@H](O)[C@@H](O)[C@H](O)C1` (some centres undefined) displayed an Activity of 34%. The same measure, in the same setting: in the case of `CC(C)(O)CCCCOc1ccc(/C=C/C2=C[C@@H](O)[C@@H](O)[C@H](O)C2)c2c1CCCC2` it was 21%; in that of `CC(C)(O)CCCOc1ccc(C#CC2=C[C@@H](O)[C@@H](O)[C@H](O)C2)c2c1CCCC2`, 15%.

The same experiment, now with this note: filed as agonist.
As to `CC(C)(C)C(=O)COc1ccc(/C=C/C2=C[C@@H](O)[C@@H](O)[C@H](O)C2)c2c1CCCC2`, the Activity was 68%.

`CC(C)(O)CCCOc1cccc2c1CCCC2OC(=O)C1=C[C@@H](O)[C@@H](O)[C@H](O)C1` (some centres undefined) had an Activity of 69%.

Turning to `C=CCC(O)(CC=C)CCCOc1cccc2c1CCCC2OC(=O)C1=C[C@@H](O)[C@@H](O)[C@H](O)C1` (some centres undefined), the Activity came out at 51%. Molecule `CC(C)(O)CCOc1ccc(/C=C/C2=C[C@@H](O)[C@@H](O)[C@H](O)C2)c2c1CCCC2` came in with an Activity of 55%. Same read-out and setting: to `CCC(O)(CC)CCCOc1cccc2c1CCCC2OC(=O)C1=C[C@@H](O)[C@@H](O)[C@H](O)C1` (some centres undefined) belongs 68%; to `CC(C)(O)CCCn1ccc2c(/C=C/C3=C[C@@H](O)[C@@H](O)[C@H](O)C3)cccc21`, 71%; to `CC(C)(O)CCCOc1cccc(COC(=O)C2=C[C@@H](O)[C@@H](O)[C@H](O)C2)c1`, 49%. `Cc1cc(C(C)(C)O)ccc1-c1ccc(COC(=O)C2=C[C@@H](O)[C@@H](O)[C@H](O)C2)s1`: the Activity is 71%.

As to `OCc1ccc(/C=C/c2ccc(OCCCC(F)(F)F)cc2)cc1CO`, the Activity amounted to 51%. Molecule `CC(C)(O)CCOc1ccc(C#CC2=C[C@@H](O)[C@@H](O)[C@H](O)C2)c2c1CCCC2` showed an Activity of 56%. Turning to `CC(C)(O)CCOc1cccc2c1CCCC2OC(=O)C1=C[C@@H](O)[C@@H](O)[C@H](O)C1` (some centres undefined), the Activity was found to be 45%. `CCCCC(OC(=O)C1=C[C@@H](O)[C@@H](O)[C@H](O)C1)c1cccc(OCCCC(C)(C)O)c1` (some centres undefined) yielded an Activity of 50%.

`CCN(CC)CCCOc1cccc2c1CCCC2OC(=O)C1=C[C@@H](O)[C@@H](O)[C@H](O)C1` (some centres undefined) showed an Activity of 64%. On to `CC(C)(O)CCCOc1ccc(/C=C/C2=C[C@@H](O)[C@@H](O)[C@H](O)C2)c2c1CCCC2`, for which the Activity was 43%.

In turn, `CCC(O)(CC)CCCCOc1ccc(C#CC2=C[C@@H](O)[C@@H](O)[C@H](O)C2)c2c1CCCC2` gave an Activity of 49%. On the same count and under the same terms, in the case of `CCN(CC)C(=O)COc1ccc(/C=C/C2=C[C@@H](O)[C@@H](O)[C@H](O)C2)c2c1CCCC2` it was 56%; in that of `CCC(O)(CC)COc1ccc(/C=C/C2=C[C@@H](O)[C@@H](O)[C@H](O)C2)c2c1CCCC2`, 61%; in that of `CC(OC(=O)C1=C[C@@H](O)[C@@H](O)[C@H](O)C1)c1cccc(OCCCC(C)(C)O)c1` (some centres undefined), 85%.

`CC(C)(C)c1ccc(C(=O)COc2ccc(/C=C/C3=C[C@@H](O)[C@@H](O)[C@H](O)C3)c3c2CCCC3)cc1` gave an Activity of 88%. As to `CC(C)c1ccc(C(=O)COc2ccc(/C=C/C3=C[C@@H](O)[C@@H](O)[C@H](O)C3)c3c2CCCC3)cc1`, the Activity came out at 76%.

`CC(C)(O)CCCCOc1cccc2c1CCCC2OC(=O)C1=C[C@@H](O)[C@@H](O)[C@H](O)C1` (some centres undefined) registered an Activity of 65%. Still for that read-out and setting: to `CC(C)(O)CCCCOc1ccc(C#CC2=C[C@@H](O)[C@@H](O)[C@H](O)C2)c2c1CCCC2` belongs 50%. The same measure, in the same setting: to `CC(C)(O)COc1ccc(/C=C/C2=C[C@@H](O)[C@@H](O)[C@H](O)C2)c2c1CCCC2` belongs 72%; to `O=C(COc1ccc(/C=C/C2=C[C@@H](O)[C@@H](O)[C@H](O)C2)c2c1CCCC2)N1CCOCC1`, 45%. Take `CC(C)(C)C(O)COc1ccc(/C=C/C2=C[C@@H](O)[C@@H](O)[C@H](O)C2)c2c1CCCC2` (some centres undefined): the Activity turned out to be 50%.
